Test results as given in patent US20100099561A1, “HETEROBICYCLIC ALKYLTHIO-BRIDGED ISOXAZOLINES” (E.I. DU PONT DE NEMOURS AND COMPANY, priority 2008, published 2010).

How the values were obtained:
Assay type in all cases: in vivo
corn (Zea mays) [1] = assay: Test A preemergence, corn; details: 0 to 100 scale (0 no effect, 100 complete control)
Summary of the method: (§1)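 Sow seeds in loam–sand blend; spray soil directly (pre) and treat emerged one- to two-leaf plants 2–10 cm tall (post) with compound in surfactant-containing non-phytotoxic solvent. Keep in greenhouse about ten days. Score injury visually against controls from 0 to 100.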

[2] = tested on: barnyardgrass (Echinochloa crus-galli); assay: Test B flooded paddy test, barnyardgrass; details: Flood
Summary of the method: (§2)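 Rice, umbrella sedge, ducksalad and barnyardgrass at 2-leaf stage; pots flooded to 3 cm, compounds applied into paddy water, depth held throughout. Greenhouse 13 to 15 days, then visual rating vs untreated controls on 0–100 scale (0 no effect, 100 complete control); dash means no test result.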

[3] = tested on: large crabgrass (Digitaria sanguinalis); assay: Test A postemergence, large crabgrass; details: 0 to 100 scale (0 no effect, 100 complete control)
Summary of the method: as §1

[4] = tested on: barnyardgrass (Echinochloa crus-galli); assay: Test A postemergence, barnyardgrass; details: 0 to 100 scale (0 no effect, 100 complete control)
Summary of the method: as §1

[5] = tested on: ducksalad (Heteranthera limosa); assay: Test B flooded paddy test, ducksalad; details: Flood, scale 0 to 100
Summary of the method: as §2

[6] = tested on: pigweed (Amaranthus retroflexus); assay: Test A preemergence, pigweed; details: 0 to 100 scale (0 no effect, 100 complete control)
Summary of the method: as §1

[7] = tested on: wheat (Triticum aestivum); assay: Test A preemergence, wheat; details: 0 to 100 scale (0 no effect, 100 complete control)
Summary of the method: as §1

[8] = tested on: wheat (Triticum aestivum); assay: Test A postemergence, wheat; details: 0 to 100 scale (0 no effect, 100 complete control)
Summary of the method: as §1

[9] = tested on: barnyardgrass (Echinochloa crus-galli); assay: Test A preemergence, barnyardgrass; details: 0 to 100 scale (0 no effect, 100 complete control)
Summary of the method: as §1

[10] = tested on: giant foxtail (Setaria faberi); assay: Test A preemergence, giant foxtail; details: 0 to 100 scale (0 no effect, 100 complete control)
Summary of the method: as §1

[11] = tested on: morningglory (Ipomoea spp.); assay: Test A postemergence, morningglory; details: 0 to 100 scale (0 no effect, 100 complete control)
Summary of the method: as §1

rice (Oryza sativa) = assay: Test B flooded paddy test, rice; details: Flood, scale 0 to 100
Summary of the method: as §2

[12] = tested on: morningglory (Ipomoea spp.); assay: Test A preemergence, morningglory; details: 0 to 100 scale (0 no effect, 100 complete control)
Summary of the method: as §1

corn (Zea mays) [13] = assay: Test A postemergence, corn; details: 0 to 100 scale (0 no effect, 100 complete control)
Summary of the method: as §1

[14] = tested on: umbrella sedge (Cyperus difformis); assay: Test B flooded paddy test, umbrella sedge; details: Flood, scale 0 to 100
Summary of the method: as §2

[15] = tested on: giant foxtail (Setaria faberi); assay: Test A postemergence, giant foxtail; details: 0 to 100 scale (0 no effect, 100 complete control)
Summary of the method: as §1

[16] = tested on: velvetleaf (Abutilon theophrasti); assay: Test A postemergence, velvetleaf; details: 0 to 100 scale (0 no effect, 100 complete control)
Summary of the method: as §1

[17] = tested on: large crabgrass (Digitaria sanguinalis); assay: Test A preemergence, large crabgrass; details: 0 to 100 scale (0 no effect, 100 complete control)
Summary of the method: as §1

[18] = tested on: pigweed (Amaranthus retroflexus); assay: Test A postemergence, pigweed; details: 0 to 100 scale (0 no effect, 100 complete control)
Summary of the method: as §1

[19] = tested on: velvetleaf (Abutilon theophrasti); assay: Test A preemergence, velvetleaf; details: 0 to 100 scale (0 no effect, 100 complete control)
Summary of the method: as §1

## CC1(C)CC([S+]([O-])Cc2c(C(F)(F)F)nc3n(c2=O)CCCCC3)=NO1 (stereo not drawn) [Compound 34]
Corn (Zea mays) [1]; 125 g ai/ha
  Plant response rating, Corn: 0
Corn (Zea mays) [1]; 500 g ai/ha
  Plant response rating, Corn: 0
[2]; 31 g ai/ha, scale 0 to 100
  Plant response rating, Barnyardgrass: 0
[2]; 62 g ai/ha, scale 0 to 100
  Plant response rating, Barnyardgrass: 0
[2]; 125 g ai/ha, scale 0 to 100
  Plant response rating, Barnyardgrass: 0
[2]; 250 g ai/ha, scale 0 to 100 (0 no effect, 100 complete control)
  Plant response rating, Barnyardgrass: 0
[3]; 125 g ai/ha
  Plant response rating, Crabgrass, Large: 0
[3]; 500 g ai/ha
  Plant response rating, Crabgrass, Large: 40
[4]; 125 g ai/ha
  Plant response rating, Barnyardgrass: 0
[4]; 500 g ai/ha
  Plant response rating, Barnyardgrass: 50
[5]; 31 g ai/ha
  Plant response rating, Ducksalad: 0
[5]; 62 g ai/ha
  Plant response rating, Ducksalad: 0
[5]; 125 g ai/ha
  Plant response rating, Ducksalad: 0
[5]; 250 g ai/ha
  Plant response rating, Ducksalad: 0
[6]; 125 g ai/ha
  Plant response rating, Pigweed: 0
[6]; 500 g ai/ha
  Plant response rating, Pigweed: 0
[7]; 125 g ai/ha
  Plant response rating, Wheat: 0
[7]; 500 g ai/ha
  Plant response rating, Wheat: 50
[8]; 125 g ai/ha
  Plant response rating, Wheat: 0
[8]; 500 g ai/ha
  Plant response rating, Wheat: 20
[9]; 125 g ai/ha
  Plant response rating, Barnyardgrass: 0
[9]; 500 g ai/ha
  Plant response rating, Barnyardgrass: 70
[10]; 125 g ai/ha
  Plant response rating, Foxtail, Giant: 0
[10]; 500 g ai/ha
  Plant response rating, Foxtail, Giant: 90
[11]; 125 g ai/ha
  Plant response rating, Morningglory: 30
[11]; 500 g ai/ha
  Plant response rating, Morningglory: 40
Rice (Oryza sativa); 31 g ai/ha
  Plant response rating, Rice: 0
Rice (Oryza sativa); 62 g ai/ha
  Plant response rating, Rice: 0
Rice (Oryza sativa); 125 g ai/ha
  Plant response rating, Rice: 0
Rice (Oryza sativa); 250 g ai/ha
  Plant response rating, Rice: 0
[12]; 125 g ai/ha
  Plant response rating, Morningglory: 0
[12]; 500 g ai/ha
  Plant response rating, Morningglory: 0
Corn (Zea mays) [13]; 125 g ai/ha
  Plant response rating, Corn: 0
Corn (Zea mays) [13]; 500 g ai/ha
  Plant response rating, Corn: 0
[14]; 31 g ai/ha
  Plant response rating, Sedge, Umbrella: 0
[14]; 62 g ai/ha
  Plant response rating, Sedge, Umbrella: 0
[14]; 125 g ai/ha
  Plant response rating, Sedge, Umbrella: 0
[14]; 250 g ai/ha
  Plant response rating, Sedge, Umbrella: 0
[15]; 125 g ai/ha
  Plant response rating, Foxtail, Giant: 0
[15]; 500 g ai/ha
  Plant response rating, Foxtail, Giant: 60
[16]; 125 g ai/ha
  Plant response rating, Velvetleaf: 0
[16]; 500 g ai/ha
  Plant response rating, Velvetleaf: 0
[17]; 125 g ai/ha
  Plant response rating, Crabgrass, Large: 0
[17]; 500 g ai/ha
  Plant response rating, Crabgrass, Large: 80
[18]; 125 g ai/ha
  Plant response rating, Pigweed: 0
[18]; 500 g ai/ha
  Plant response rating, Pigweed: 0
[19]; 125 g ai/ha
  Plant response rating, Velvetleaf: 0
[19]; 500 g ai/ha
  Plant response rating, Velvetleaf: 0
